ChEMBL document CHEMBL5131491, “N6-modification of 7-Deazapurine nucleoside analogues as Anti-Trypanosoma cruzi and anti-Leishmania agents: Structure-activity relationship exploration and In vivo evaluation” (Eur J Med Chem, 2022)
The source made the active and inactive calls. The rule behind the calls is not given here.

What was measured:
Trypanosoma cruzi [1] = experiment: Antitrypanosomal activity against Trypanosoma cruzi Y strain infected in acute CD Swiss Webster mouse model assessed as reduction in parasitemia at 25 mg/kg, po qd for 5 consecutive days by light microscopy relative to control; assay type: functional; set-up: scale not given: the % may be the effect or the level left; conditions: time 5 day
[2] = Cytotoxicity against human MRC5 fibroblast cells assessed as reduction in cell viability measured after 3 days by fluorometry; assay type: toxicity, cell-based; conditions: time 3 day
Trypanosoma cruzi [3] = experiment: Antitrypanosomal activity against Trypanosoma cruzi Y strain infected in acute CD Swiss Webster mouse model assessed as reduction in parasitemia at 12.5 mg/kg, po qd for 5 consecutive days by light microscopy relative to control; assay type: functional; set-up: scale not given: the % may be the effect or the level left; conditions: time 5 day
Trypanosoma cruzi [4] = experiment: Antitrypanosomal activity against intracellular Trypanosoma cruzi Tulahuen amastigotes expressing CL2 beta-galactosidase in human MRC5 cells assessed as parasite growth inhibition using chlorophenol red beta-D-galactopyranoside as substrate treated for 7 days by spectrophotometry; assay type: functional, organism-based; conditions: MRC5, 168 h
[5] = Selectivity index, ratio of CC50 for human MRC-5 cells to EC50 for antitrypanosomal activity against intracellular Trypanosoma cruzi Tulahuen amastigotes expressing CL2 beta-galactosidase in human MRC5 cells; assay type: toxicity, cell-based; conditions: read-out: Selectivity Index
Leishmania infantum [6] = experiment: Antileishmanial activity against intracellular Leishmania infantum MHOM/MA(BE)/67 amastigotes infected in Swiss mouse peritoneal macrophages assessed as parasite growth inhibition incubated for 5 days by giemsa staining based microscopic analysis; assay type: functional, organism-based; conditions: MHOM/MA(BE)/67, Macrophage, 120 h
[7] = Cytotoxicity against Swiss mouse peritoneal macrophages assessed as reduction in cell viability measured after 5 days by microscopic analysis; assay type: toxicity, cell-based, Macrophage; conditions: time 5 day
[8] = Selectivity index, ratio of CC50 for Swiss mouse peritoneal macrophages to EC50 for antileishmanial activity against intracellular Leishmania infantum MHOM/MA(BE)/67 amastigotes infected in Swiss mouse peritoneal macrophages; assay type: toxicity, cell-based; conditions: read-out: Selectivity Index
[9] = Metabolic stability in mouse liver microsomes S9 fraction assessed as parent compound remaining at 5 uM incubated for 15 mins in presence of NADPH by liquid chromatography (reference value: 100 %); assay type: ADME, Microsome S9 fraction; conditions: read-out: Stability
[10] = Metabolic stability in mouse liver microsomes S9 fraction assessed as parent compound remaining at 5 uM incubated for 30 mins in presence of NADPH by liquid chromatography (reference value: 100 %); assay type: ADME, Microsome S9 fraction; conditions: read-out: Stability
[11] = Metabolic stability in mouse liver microsomes S9 fraction assessed as parent compound remaining at 5 uM incubated for 60 mins in presence of NADPH by liquid chromatography (reference value: 100 %); assay type: ADME, Microsome S9 fraction; conditions: read-out: Stability
[12] = Metabolic stability in hamster liver microsomes S9 fraction assessed as parent compound remaining at 5 uM incubated for 15 min in presence of NADPH by liquid chromatography (reference value: 100 %); assay type: ADME, Cricetulus griseus, Microsome S9 fraction; conditions: chinese hamster, read-out: Stability
[13] = Metabolic stability in hamster liver microsomes S9 fraction assessed as parent compound remaining at 5 uM incubated for 30 min in presence of NADPH by liquid chromatography (reference value: 100 %); assay type: ADME, Cricetulus griseus, Microsome S9 fraction; conditions: chinese hamster, read-out: Stability
[14] = Metabolic stability in hamster liver microsomes S9 fraction assessed as parent compound remaining at 5 uM incubated for 60 min in presence of NADPH by liquid chromatography (reference value: 100 %); assay type: ADME, Cricetulus griseus, Microsome S9 fraction; conditions: chinese hamster, read-out: Stability
[15] = Metabolic stability in human liver microsomes S9 fraction assessed as parent compound remaining at 5 uM incubated for 15 min in presence of NADPH by liquid chromatography (reference value: 100 %); assay type: ADME, Microsome S9 fraction; conditions: read-out: Stability
[16] = Metabolic stability in human liver microsomes S9 fraction assessed as parent compound remaining at 5 uM incubated for 30 min in presence of NADPH by liquid chromatography (reference value: 100 %); assay type: ADME, Microsome S9 fraction; conditions: read-out: Stability
[17] = Metabolic stability in human liver microsomes S9 fraction assessed as parent compound remaining at 5 uM incubated for 60 min in presence of NADPH by liquid chromatography (reference value: 100 %); assay type: ADME, Microsome S9 fraction; conditions: read-out: Stability
[18] = Metabolic stability in mouse liver microsomes S9 fraction assessed as parent compound remaining at 5 uM incubated for 15 min in presence of UGT by liquid chromatography (reference value: 100 %); assay type: ADME, Microsome S9 fraction; conditions: read-out: Stability
[19] = Metabolic stability in mouse liver microsomes S9 fraction assessed as parent compound remaining at 5 uM incubated for 30 min in presence of UGT by liquid chromatography (reference value: 100 %); assay type: ADME, Microsome S9 fraction; conditions: read-out: Stability
[20] = Metabolic stability in mouse liver microsomes S9 fraction assessed as parent compound remaining at 5 uM incubated for 60 min in presence of UGT by liquid chromatography (reference value: 100 %); assay type: ADME, Microsome S9 fraction; conditions: read-out: Stability
[21] = Metabolic stability in hamster liver microsomes S9 fraction assessed as parent compound remaining at 5 uM incubated for 15 min in presence of UGT by liquid chromatography (reference value: 100 %); assay type: ADME, Cricetulus griseus, Microsome S9 fraction; conditions: chinese hamster, read-out: Stability
[22] = Metabolic stability in hamster liver microsomes S9 fraction assessed as parent compound remaining at 5 uM incubated for 30 min in presence of UGT by liquid chromatography (reference value: 100 %); assay type: ADME, Cricetulus griseus, Microsome S9 fraction; conditions: chinese hamster, read-out: Stability
[23] = Metabolic stability in hamster liver microsomes S9 fraction assessed as parent compound remaining at 5 uM incubated for 60 min in presence of UGT by liquid chromatography (reference value: 100 %); assay type: ADME, Cricetulus griseus, Microsome S9 fraction; conditions: chinese hamster, 1 h
[24] = Metabolic stability in human liver microsomes S9 fraction assessed as parent compound remaining at 5 uM incubated for 15 min in presence of UGT by liquid chromatography (reference value: 100 %); assay type: ADME, Microsome S9 fraction; conditions: read-out: Stability
[25] = Metabolic stability in human liver microsomes S9 fraction assessed as parent compound remaining at 5 uM incubated for 30 min in presence of UGT by liquid chromatography (reference value: 100 %); assay type: ADME, Microsome S9 fraction; conditions: read-out: Stability
[26] = Metabolic stability in human liver microsomes S9 fraction assessed as parent compound remaining at 5 uM incubated for 60 min in presence of UGT by liquid chromatography (reference value: 100 %); assay type: ADME, Microsome S9 fraction; conditions: read-out: Stability
Trypanosoma cruzi [27] = experiment: Antitrypanosomal activity against Trypanosoma cruzi Y strain infected in acute CD Swiss Webster mouse model assessed as reduction in parasitemia at 50 mg/kg, po qd for 5 consecutive days by light microscopy relative to control; assay type: functional; set-up: scale not given: the % may be the effect or the level left; conditions: time 5 day
[28] = Toxicity in acute CD Swiss Webster mouse model infected with Trypanosoma cruzi Y strain assessed as animal survival at 50 mg/kg, po qd for 5 consecutive days measured daily for upto 30 days post-treatment; assay type: organism-based; conditions: in vivo, 720 h, time < 30 day
Trypanosoma cruzi [29] = experiment: Antitrypanosomal activity against bloodstream extracellular Trypanosoma cruzi Y strain trypomastigotes assessed as reduction in parasite growth incubated for 96 hrs by light microscope; assay type: functional, organism-based
Leishmania infantum [30] = experiment: Antileishmanial activity against extracellular Leishmania infantum LEM3323-C14 promastigotes assessed as reduction in parasite growth incubated for 96 hrs by light microscope; assay type: functional, organism-based; conditions: LEM3323-C14, 96 h
Leishmania infantum [31] = experiment: Antileishmanial activity against extracellular Leishmania infantum […] MIL5C13 promastigotes assessed as reduction in parasite growth incubated for 96 hrs by light microscopy; assay type: functional, organism-based
Leishmania infantum [32] = experiment: Antileishmanial activity against extracellular Leishmania infantum […] PMM promastigotes assessed as reduction in parasite growth incubated for 96 hrs by light microscopy; assay type: functional, organism-based
Trypanosoma cruzi [33] = experiment: Antitrypanosomal activity against Trypanosoma cruzi Y strain infected in acute CD Swiss Webster mouse model assessed as reduction in parasitemia at 12.5 to 25 mg/kg, po qd administered for 5 consecutive days by light microscopy; assay type: functional, organism-based; conditions: dose 12.5-25 mg/kg, time 5.0 day
[34] = Acute toxicity in acute CD Swiss Webster mouse model infected with Trypanosoma cruzi Y strain assessed as survival rate at 12.5 mg/kg, po administered for 5 consecutive days measured after 55 days post treatment (reference value: 100 %); assay type: organism-based; conditions: in vivo, time 55 day
[35] = Acute toxicity in acute CD Swiss Webster mouse model infected with Trypanosoma cruzi Y strain assessed as survival rate at 25 mg/kg, po administered for 5 consecutive days measured after 55 days post treatment (reference value: 100 %); assay type: organism-based; conditions: in vivo, time 55 day
[36] = Acute toxicity in acute CD Swiss Webster mouse model infected with Trypanosoma cruzi Y strain assessed as maximum tolerated dose administered orally once daily for 5 consecutive days; conditions: in vivo, route po, time 5 day
[37] = Acute toxicity in acute CD Swiss Webster mouse model infected with Trypanosoma cruzi Y strain assessed as weight loss at 12.5 to 50 mg/kg, po qd administered for 5 consecutive days measured once a week; assay type: organism-based; conditions: in vivo, 120 h, dose 12.5-50 mg/kg, time 5 day
[38] = Toxicity in early curative hamster model assessed as severe toxicity at 50 mg/kg, po qd for 4 days measured on day 5; assay type: organism-based, Cricetulus griseus; conditions: chinese hamster, in vivo, 120 h, time 5 day
[39] = Toxicity in early curative hamster model assessed as weight loss at 50 mg/kg, po qd for 4 days measured on day 2; assay type: organism-based, Cricetulus griseus; conditions: chinese hamster, in vivo, 96 h, time 4 day
[40] = Toxicity in early curative hamster model assessed as clinical symptoms of toxicity at 50 mg/kg, po qd for 4 days; assay type: organism-based, Cricetulus griseus; conditions: chinese hamster, in vivo, 96 h, time 4 day

CNc1ncnc2c1ccn2[C@@H]1O[C@H](CO)[C@@H](O)[C@H]1O
Activity (Trypanosoma cruzi [1]): 89% | CC50 at 72 h [2]: > 64 µM | Activity (Trypanosoma cruzi [3]): 75% | EC50 (Trypanosoma cruzi [4]): 0.45 µM | selectivity ratio [5]: > 142 | EC50 (Leishmania infantum [6]): 0.49 µM | CC50 at 120 h [7]: > 64 µM | selectivity ratio [8]: > 131 | remaining at 0.25 h, 5 µM [9]: 96% | remaining at 0.5 h, 5 µM [10]: 96% | remaining at 1 h, 5 µM [11]: 107% | remaining at 0.25 h, 5 µM [12]: 97% | remaining at 0.5 h, 5 µM [13]: 93% | remaining at 1 h, 5 µM [14]: 103% | remaining at 0.25 h, 5 µM [15]: 108% | remaining at 0.5 h, 5 µM [16]: 95% | remaining at 1 h, 5 µM [17]: 105% | remaining at 0.25 h, 5 µM [18]: 103% | remaining at 0.5 h, 5 µM [19]: 105% | remaining at 1 h, 5 µM [20]: 98% | remaining at 0.25 h, 5 µM [21]: 102% | remaining at 0.5 h, 5 µM [22]: 102% | Stability [23]: 116% | remaining at 0.25 h, 5 µM [24]: 99% | remaining at 0.5 h, 5 µM [25]: 104% | remaining at 1 h, 5 µM [26]: 104% | Activity (Trypanosoma cruzi [27]): 96% | Survival [28]: Toxic | EC50 (Trypanosoma cruzi [29]): > 24 µM | EC50 (Leishmania infantum [30]): 8 µM | EC50 (Leishmania infantum [31]): 2.38 µM | EC50 (Leishmania infantum [32]): 2 µM | Activity (Trypanosoma cruzi [33]): Active | survival at 1320 h [34]: 83.3% | survival at 1320 h [35]: 66.7% | MTD at 120 h [36]: 12.5 mg/kg/day | Activity [37]: Toxic | Activity [38]: Toxic | Activity [39]: Toxic | Activity [40]: Toxic
